Reference: patent US8901168B2 (priority 2007, dated 2014)

System: anti-TT antibodies
Set-up: species or system BALB/c mice
Details: mouse, in vivo

Row | Structure (SMILES) | anti-TT Ig titres | anti-TT antibody titres after the third vaccination vs α-T treated mice | anti-TT antibody titres after the third vaccination, ranking of groups | antibody titres after the third immunisation as compared to first immunisation
1 | CC(C)=CCC/C(C)=C/CC/C(C)=C/CC[C@]1(C)CCc2cc(O)cc(C)c2O1 [δ-T3, δ-tocotrienol] | significantly (P<0.05) enhanced | significantly (P<0.01) higher | highest | highly significant (P<0.01) antibody titres
2 | Cc1c(C)c2c(c(C)c1O)CC[C@@](C)(CCC[C@H](C)CCC[C@H](C)CCCC(C)C)O2 [α-T, α-tocopherol] | significantly (P<0.05) enhanced |  |  | 
